This note sets out measurements from US8847003B2, “Role of proteoglycans in drug dependence” (priority 2002, dated 2014).

Series [1] relates to mouse hypothalamic protein extracts. Put plainly: Cleavage of internally-quenched fluorogenic peptides by hypothalamic protein extracts. The note with it: 37° C., 50 mM Tris-HCl buffer, pH 7.0; for proteolytic cleavage of the fluorogenic peptide by hypothalamic extracts: peptide as substrate. The class given is biochemical. The text has this: According to one of the embodiments of the invention, syndecan-3 sheddases are identified by an assay for syndecan-3 cleavage, which requires knowledge of the cleavage site. The cleavage site for syndecan-3 cleavage is not presently completely identified. However, according to embodiments of the invention, we designed a battery of overlapping internally-quenched fluorogenic peptides spanning the juxta-membrane region of the mouse syndecan-3 (Amino Acid residues 355-388) labeled at their ends with Abz (ortho-aminobenzoyl) and EDDnp (ethylenediaminedinitrophenyl) for fluorescent detection of proteolytic cleavage (FIG. 7A). The peptides were individually incubated with mouse hypothalamic protein extracts at 37° C. in 50 mM Tris-HCl buffer, pH 7.0. Fluorescence was continuously measured at λex=320 nm and λem=420 nm. […] Proteolytic activity is expressed as reaction rate (activity/μl/min). […] Thus, this peptide or a peptide overlapping this peptide can be used in an assay to identify the sheddase of syndecan-3 and/or drugs that prevent or facilitate shedding (inhibitors, activators, mimics antimimics).
While the invention has been described in conjunction with the detailed description, the foregoing description is intended to illustrate and not limit the scope of the invention, which is defined by the scope of the appended claims. Other aspects, advantages, and modifications are within the scope of the following claims.

A further series can be described thus: Rotarod performance. The class given is in vivo, mice. The note with it: prinomastat at the dose used (20 mg/Kg IP); data not shown.
Another series has as its system syndecan-mutant mice. The series can be described thus: Cue-induced reinstatement of cocaine-seeking behavior. It counts as in vivo. To be noted: for reinstatement of cocaine seeking behavior in mice (figure legend): FIG. 6 legend. The text has this:
. Separate groups of mice of the 3 syndecan mutant genotypes (syndecan-3 knockout, whole syndecan-1 transgenic, and syndecan-1 ectodomain transgenic mice) were trained to self-administer cocaine by intravenous injection as described above. Mice were subjected to 7 sessions of 1-hour access to self-administration followed by 8 sessions of 6-hour access as described above.
Mice were allowed one 1-hour extinction session/day for a minimum of 14 days, until an extinction criterion was reached. The extinction criterion was designated as a group mean of less than 10 responses/1 hour for two consecutive sessions on the active lever.
The conditions during testing were identical to those during the extinction phase, with the exception that lever presses led to presentations of the cocaine cue-light for 5 seconds. The 1-hour test session for cue-induced reinstatement were conducted on the day following the last extinction session. A one way ANOVA with one between factor (genotype, three) were used to measure any differential effects of the cocaine-related cue induced reinstatement.
In still another example, the following experiment was performed showing that a wide spectrum of MMP inhibitors block cue-induced reinstatement of cocaine seeking behavior. Lever-pressing behavior in cocaine self-administering syndecan-mutant mice was extinguished in the absence of the 20 sec cue light (CS) that was paired with cocaine infusions during the training phase as shown in Example 4. […] In FIG. 6B, After a few days, animals were again presented with the cue light non-contingently and on the third day of reinstatement they were administered IP the systemically active broad-spectrum MMP inhibitor prinomastat (20 mg/Kg) 30-60 min before the reinstatement sessions starting on the third session.

The test system of the next series is syndecan-3. The series can be described thus: Western blot of uncleaved syndecan-3 after ICV GM-6001 in mice. It counts as in vivo, C57BL/6J mice. The note with it: for uncleaved syndecan-3 / shedding of syndecan-3 (western blot, syndecan-3 C-terminal domain antibody): ICV at various doses, sacrificed 3 hours after administration. From the text:
FIG. 5B. Quantification of western blot shown in (A).

Ends that are not written are not given here.

With `c1cnc2c(c1)ccc1cccnc12` [ortho-phenanthroline], the “inhibition of hydrolysis of peptide 1 (Seq Id No. 3) by hypothalamic extract” value in series [1] (fluorescence λex=320 nm, λem=420 nm) is recorded as “completely inhibited”.
As for `CC1(C)SCCN(S(=O)(=O)c2ccc(Oc3ccncc3)cc2)[C@H]1C(=O)NO` [prinomastat, Prinomastat], the “performance on the rotarod” value in the series “Rotarod performance” is reported as “did not affect”. The “reinstatement of cocaine seeking behavior in mice (figure legend)” value with syndecan-mutant mice is on record as “block reinstatement of cocaine seeking behavior”. Further, the responding during reinstatement result in the series with syndecan-mutant mice (prinomastat 20 mg/Kg IP 30-60 min before sessions, syndecan-1 ectodomain Tg mice, p<0.01 from last day before treatment) was “significantly declined”.
For the molecule Ilomastat [GM6001], the “uncleaved syndecan-3 / shedding of syndecan-3 (western blot, syndecan-3 C-terminal domain antibody)” value with syndecan-3 is reported as “reduces shedding of syndecan-3”; in the series with syndecan-3 (listed as GM-6001), “accumulation of uncleaved syndecan-3”. For the same molecule, the “increase of uncleaved syndecan-3 (quantification of western blot)” value with syndecan-3 (ICV, highest doses tested (0.4 μg, 2.0 μg), p<0.01 from vehicle-injected control) is recorded as “about 3 fold”. Also, the “reinstatement of cocaine seeking behavior in mice (figure legend)” value in the series on syndecan-mutant mice is “block reinstatement of cocaine seeking behavior”. Besides, the “responding during reinstatement, last day before treatment vs last day of treatment” value with syndecan-mutant mice (GM6001 0.4 μg ICV 30-60 min before sessions, syndecan-3 KO mice) is on record as “not significantly different”. The “cocaine seeking behavior (responding) during reinstatement” value in the series with syndecan-mutant mice (GM6001 0.4 μg ICV 30-60 min before sessions, whole syndecan-1 Tg mice, p<0.01 from last day before treatment) is given as “greatly reduced”.
In the case of Mca-PLQAV-Dpa-RSSSR-NH2 [Compound E003], the “proteolytic cleavage of the fluorogenic peptide by hypothalamic extracts” value in series [1] is on record as “observed activity”.
Same read-out and setting: the same measure for “RPGLGLHDNA (not fully specified; also: fluorophore/quencher pair (positions not given here); listed as Mus musculus) [Peptide 1, internally-quenched fluorogenic peptide from mouse syndecan-3 juxta-membrane region]”: “efficiently hydrolized”.
